Experimental data taken from patent US9339454B2, “Skin whitening agent” (Kao Corporation, priority 2011, dated 2016).

Target: T1, dopa oxidase (Homo sapiens, UniProt P14679)
T1 sequence (P14679 19-529): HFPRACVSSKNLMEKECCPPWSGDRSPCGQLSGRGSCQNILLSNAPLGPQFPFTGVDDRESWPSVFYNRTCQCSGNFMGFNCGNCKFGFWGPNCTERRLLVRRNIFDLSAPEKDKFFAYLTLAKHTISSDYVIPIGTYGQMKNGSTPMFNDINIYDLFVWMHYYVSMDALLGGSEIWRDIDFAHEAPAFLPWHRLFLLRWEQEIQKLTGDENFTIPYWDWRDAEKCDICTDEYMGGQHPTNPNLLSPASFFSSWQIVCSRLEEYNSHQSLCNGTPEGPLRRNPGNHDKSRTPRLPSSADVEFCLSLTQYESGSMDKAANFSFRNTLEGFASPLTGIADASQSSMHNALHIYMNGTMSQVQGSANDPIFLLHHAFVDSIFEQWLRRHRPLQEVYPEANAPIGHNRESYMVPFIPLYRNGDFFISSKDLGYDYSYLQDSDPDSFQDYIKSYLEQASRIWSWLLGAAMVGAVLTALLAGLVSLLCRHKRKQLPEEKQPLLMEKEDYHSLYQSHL
Experiment: Dopa oxidase activity in cultured melanocytes (MBTH method)
Format: cell-based
Conditions: for inhibition at 0.5 µM: evaluation concentration 0.5 μM; for inhibition at 0.5 µM / inhibition at 1 µM / inhibition at 0.1 µM: relative to control, read-out: Dopa oxidase inhibitory rate (%); for inhibition at 1 µM: evaluation concentration 1.0 μM; for inhibition at 0.1 µM: evaluation concentration 0.1 μM; for Dopa oxidase activity of fractions, result in words: activity-guided fractionation of haguro-so 50% ethanol extract, same procedure as Example 1
Description: Normal human neonatal epidermal melanocytes (NHEMs; KURABO INDUSTRIES, LTD.) were seeded in a 96-well plates at a density of 1×10^4 cells/well ([…]) and cultured at 37° C. under a 5% CO2. Cells were maintained in Medium 254 (KURABO INDUSTRIES, LTD.) containing growth supplement (HMGS) without PMA.
After 3-day culture, the haguro-so extracts (water extract, 50% ethanol extract, or 95% ethanol extract) prepared in accordance with the above Production Examples 1 to 3 and having an evaporation residue of 1.0 w/v % were each added to give a final concentration shown in Table 1 together with Endothelin-1 (ET-1), SCF, α-MSH, Histamine, and PGE2 adjusted to have a final concentration of 1 nM in each medium, and cultured under the conditions of 37° C. and a 5% CO2 for 3 days. For a control, an ethanol aqueous solution (10%, 50%, or 95%) of the equal amount was added.
After completion of culture, Alamar Blue (Invitrogen) reagent was added in an amount of 20 μL/well and incubated for 2 to 3 hours, followed by measuring the fluorescence intensity of the medium to measure the cellular respiration activity. […] The dopa oxidase activity was measured by the following method with reference to the MBTH method (Winder A. et al., 1991, Eur. J. Biochem. 198: 317-326).
To each of the wells containing the solubilized cell solution, 80 μL of the above assay buffer, 60 μL of 20.7 mM MBTH (3-methyl-2-benzothiazolinon hydrazone) solution, and 40 μL of 5 mM L-dopa(L-dihydroxyphenylalanine) solution as a substrate were added, reacted at 37° C. for 30 to 60 minutes, thereby measuring the color reaction thereof at 490 nm absorbance (N=3). The measured values were shown in the relative value to the result of the control.
Normal human neonatal epidermal melanocytes (NHEMs; KURABO INDUSTRIES, LTD.) were inoculated in a 96-well plate in a cell density of 1×10^4 cells/well (100 μL/well) and cultured at 37° C. under a 5% CO2. The medium used was Medium 254 containing PMA(−) growth supplement (HMGS).
After 3-day culture, each of the compounds shown in Table 4 was added to give final concentrations shown in the same Table, together with Endothelin-1 (ET-1), SCF, α-MSH, Histamine, and PGE2 adjusted to give a final concentration of 1 nM in each medium, and cultured under the conditions of 37° C. and a 5% CO2 for 3 days. For a control, a DMSO solution of the equal amount was added.
After completion of the culture, Alamar Blue (Invitrogen) reagent was added in an amount of 20 μL/well and incubated for 2 to 3 hours, followed by measuring the fluorescence intensity of the medium to measure the cellular respiration activity. […] The dopa oxidase activity was measured by the following method with reference to the MBTH method (Winder A. et al., Eur. J. Biochem., 1991, 198: 317-326).
To each of the wells containing the solubilized cell solution, 80 μL of the above assay buffer, 60 μL of 20.7 mM MBTH (3-methyl-2-benzothiazolinon hydrazone) solution and 40 μL of 5 mM L-dopa (L-dihydroxyphenylalanine) solution as a substrate were added, reacted at 37° C. for 30 to 60 minutes, thereby measuring the color reaction thereof at 490 nm absorbance (N=3).

Which results are given for `COc1cc2c(O)c3c(c(-c4ccc5c(c4)OCO5)c2cc1OC)C(=O)OC3` [Compound 4, Diphyllin]?
inhibition at 0.5 µM (NHEMs, 3 days): 20%; inhibition at 1 µM (NHEMs, 3 days): 40%

`COc1c2c(c(-c3ccc4c(c3)OCO4)c3cc4c(cc13)OCO4)C(=O)OC2` [Compound 7, Justicidin F] was tested. Which inhibition at 0.1 µM (NHEMs, 3 days) did it give?
Its inhibition at 0.1 µM is 20%.

What does the source list for `COc1cc2cc3c(c(-c4ccc5c(c4)OCO5)c2cc1OC)C(=O)OC3` [Compound 2, Justicidin B]?
Dopa oxidase activity of fractions, result in words: found; inhibition at 0.1 µM (NHEMs, 3 days): 10%; inhibition at 0.5 µM (NHEMs, 3 days): 30%; inhibition at 1 µM (NHEMs, 3 days): 50%

Which results are given for `CCOc1c2c(c(-c3ccc4c(c3)OCO4)c3cc(OC)c(OC)cc13)C(=O)OC2` [Compound 5, 4-Ethoxy-6,7-dimethoxy-9-(1,3-benzodioxol-5-yl)naphtho[2,3-c]furan-1(3H)-one]?
inhibition at 0.1 µM (NHEMs, 3 days): 40%; inhibition at 0.5 µM (NHEMs, 3 days): 60%

How did the inhibition at 0.5 µM (NHEMs, 3 days) turn out when `COc1cc2c(OC(C)=O)c3c(c(-c4ccc5c(c4)OCO5)c2cc1OC)C(=O)OC3` [Compound 6, 4-acetoxy-6,7-dimethoxy-9-(1,3-benzodioxol-5-yl)naphtho[2,3-c]furan-1(3H)-one] was run?
Its inhibition at 0.5 µM is 40%.

And the inhibition at 1 µM (NHEMs, 3 days)?
Its inhibition at 1 µM is 50%.

Which “Dopa oxidase activity of fractions, result in words” value does the source give for `COc1cc2c(O[C@H]3OCC(O)(CO)C3O)c3c(c(-c4ccc5c(c4)OCO5)c2cc1OC)C(=O)OC3` (stereo partly shown) [Compound 3, Tuberculatin] here?
Its value is “found”.

And the inhibition at 0.1 µM (NHEMs, 3 days)?
The inhibition at 0.1 µM was 45%.

And the inhibition at 0.5 µM (NHEMs, 3 days)?
Its inhibition at 0.5 µM is 50%.

What about the inhibition at 1 µM (NHEMs, 3 days) of the same compound?
The inhibition at 1 µM was 70%.

Which results are given for `COc1cc2c(OC)c3c(c(-c4ccc5c(c4)OCO5)c2cc1OC)C(=O)OC3` [Compound 1, Justicidin A]?
Dopa oxidase activity of fractions, result in words: found; inhibition at 0.1 µM (NHEMs, 3 days): 20%; inhibition at 0.5 µM (NHEMs, 3 days): 50%; Dopa oxidase inhibitory rate (%) (evaluation concentration printed 0.1 μM as third concentration after 0.1 and 0.5, NHEMs, 3 days): 55%
